Assay [1] deals with 4T1 cells. Description: Secondary (orthotopic) 4T1 challenge after 1V270 therapy. It is filed as in vivo, BALB/c mice. An excerpt: FIGS. 24A-24G. Tumor infiltrating T cells in 1V270 treated mice show high clonalities and increased frequency of intra- and inter-individual common clones (A) Experimental protocols of the secondary challenge studies. Two groups of BALB/c mice (n=5/group) were i.p, treated with 1V270. One cohort of mice was i.v. injected with 4T1-GLF cells (2×10^4) on day 0 and tumor growth in the lungs was monitored by IVIS on day 20. […] Native BALB/c mice served as controls. 4T1 cells were orthotopically inoculated on day 21. (B) Tumor growth was measured with a caliper and calculated using the formula: volume (mm3)=(width)2×length/2. (C) TILs s were isolated from the secondarily challenged tumor on day 39 and stained for CD8^+ T cells (CD3^+CD8^+) and PD-1. The numbers of tumor-infiltrating cos• T cells were expressed per tumor volume (mm^3). Data are representative of 2 independent experiments showing similar results. Results were analyzed by the Mann-Whitney U test comparing the 1V270 treatment groups against the vehicle treated group. **P<0.01. (D·G) TCR repertoire of CD8^+ T cells from TILs s and splenocytes were examined. (D) The clonality index (1-normalized Shannon index) of CD8^+ T cells infiltrating to the left side of the secondarily challenged tumor was plotted against tumor volume in the tumor exposed mice. Correlation between the clonality index and the tumor volume was evaluated by Pearson's method (R^2=0.97, p<0.05).
FIGS. 26A-26D. Intranasally administered 1V270 inhibits pulmonary colonization in experimental metastasis models (A) Protocol for testing the therapeutic efficacy of i.n. treatment with 1V270 in IV metastasis model. BALB/c mice (n=6-8/group) were i.n. administered with 1V270 (20 or 200 μg) or vehicle on days −3, −1, 3, 7, and 10. 4T1 cells were v. injected on day 0. (B) The numbers of lung nodules were counted on Day 21. *P<0.05 calculated by Kruskal-Wallis test with Dunn's post hoc test. (C) Intranasal 1V270 therapy attenuated the growth of secondarily challenged tumors. BALB/c mice (n=S) were i.n. treated with 200 μg 1V270 on days −3, −1, 3, 7 and 10. 4T1 cells were injected on day 0. On day 21, the surviving mice were orthotopically inoculated with 4T1 cells and tumor growth was monitored. The mice treated with 1V270 without i.v. tumor cell injection served as controls. (D) TILs were isolated from the secondarily challenged tumor, and the numbers of CD8^+ T cells and PD-1 expressing CD8^+ T cells were analyzed by flow cytometric assay. Data were analyzed by the Mann-Whitney U test comparing two groups. *P<0.05. Data are representative of 2 independent experiments showing similar results.
In the spontaneous metastasis model, othotopically implanted tumor cells spontaneously form lung metastases within three weeks after implantation. 5×10^5 4T1 cells were inoculated in both sides of the 4th mammary pads of female BALB/c mice. Tumor length and width were recorded, and tumor volumes were calculated using the formula: volume (mm^3)=(width)^2×length/2. On day 28, mice were euthanized and the lungs were stained with intratracheally injected India ink and destained in Fekete's solution to count tumor nodules. In the experimental metastasis model, 2×10^4 4T1 cells were i.v. injected. On day 21, mice were euthanized and tumor nodules in lungs were counted as described above. In the secondary challenge experiment, 1V270 treated-mice without tumor signals in the lungs on day 21 of the experimental metastasis protocol were included. 5×10^5 4T1 cells were inoculated in both sides of the 4th mammary p ads. Tumor length and width were recorded, and tumor volumes were calculated similar with
To validate that 1V270 therapy induced tumor-specific adaptive immune responses, we monitored the growth of secondarily challenged tumors following prior 1V270 treatment. The mice treated with 1V270 using the IV metastasis protocol were orthotopically re-challenged with 4T1 cells on day 21 (FIG. 24A). […]

Assay [2] concerns 4T1 cells. The experiment in a line: Spontaneous lung metastasis model, orthotopic 4T1 breast cancer. Format: in vivo, BALB/c mice. The procedure: FIGS. 22A-22C. Systemic administration of 1V270 inhibits lung metastasis in the 4T1 murine syngeneic breast cancer model in a CD8^+ T cell dependent manner. (A) Protocol of spontaneous metastasis model. 4T1 cells (5×10^5) were inoculated in both 4th mammary pads of Balb/c mice (n=13/group) 1V270 (20, 80, 04 200 μg/injection) was administered on days 7, 10, 14, 17, 21 and 24. (B) The numbers of lung nodules were counted by staining with India ink after harvesting lungs on day 27. (C) The mice (n=6-15/group) were orthotopically implanted with 4T1 cells and i.p. treated with 1V270 (20 μg/injection) as shown in FIG. 1A. CD8^+ cells were depleted by administration of anti-CD8 or isotype mAbs on days 5, 8, 11, 16, 19, and 23. The numbers of lung nodules were counted on day 27. Each dot indicates an individual mouse and horizontal and vertical bars indicate means±SEM. Data shown are pooled from 2 independent experiments. *P<0.05, **P<0.01 by Kruskal-Wallis test with Dunn's post hoc test comparing treatment groups against vehicle group. n.s; statistically not significant.
FIGS. 28A-28C. […] Tumor growth was measured with a caliper and calculated using the formula: volume (mm^3)=(width)^2×length/2. […]
In the spontaneous metastasis model, othotopically implanted tumor cells spontaneously form lung metastases within three weeks after implantation. […] Tumor length and width were recorded, and tumor volumes were calculated using the formula: volume (mm^3)=(width)^2×length/2. […] On day 21, mice were euthanized and tumor nodules in lungs were counted as described above. […] Tumor length and width were recorded, and tumor volumes were calculated similar with
4T1 cells (5×10^5) were inoculated into the 4th mammary pads on day 0, and 1V270 (20, 80, or 200 μg/injection) was injected intraperitoneally (i.p.) twice a week for three weeks, starting on day 7 (FIG. 22A). Both the primary tumor volumes and the numbers of lung metastases were evaluated on day 27. […]

[3] abbreviates: intranasal 1V270, tumor-exposed vs no tumor exposure or naive.

With `CCCCCCCCC=CCCCCCCCC(=O)OCC(COP(=O)(O)OCCNC(=O)c1ccc(Cn2c(=O)[nH]c3c(N)nc(OCCOC)nc32)cc1)OC(=O)CCCCCCCC=CCCCCCCCC` (stereo not shown) [1V270], the “numbers of CD8+ T cells in TILs” value in assay [1] (1V270-treated tumor-exposed vs 1V270-treated no-tumor exposed mice) was “Three-fold higher”. In assay [1] (i.p. 1V270-treated and tumor-exposed mice vs naive or no-tumor exposed mice), the “growth of secondarily challenged tumor” value is reported as “significantly impaired”. The “growth of secondarily challenged tumor” value in assay [1] (i.p. 1V270-treated no-tumor exposed mice vs naive mice) is reported as “no difference in the tumor growth”. Moreover, the re-challenged tumor growth result in assay [1] (intranasal 1V270, tumor-exposed mice) is reported as “significantly inhibited”. Also, in assay [1] (setting [3]), the “number of CD8+ T cells in TILs” value is “A higher number” and the “number of PD-1+CD8+ T cells in TILs” value is listed as “A higher number”. For the same compound, in assay [1] (secondarily challenged tumor), the “CD8+ T cells in TILs positive for PD-1” value is on record as “more than 80%”. In addition, the “tumor growth at the primary sites of implantation” value in assay [2] (1V270 20, 80 or 200 μg/injection i.p. from day 7) is reported as “did not retard tumor growth at the primary sites of implantation”. Besides, the “number of lung metastases” value in assay [2] (1V270 20, 80 or 200 μg/injection i.p. twice a week for three weeks from day 7, evaluated day 27) is on record as “decreased the number of lung metastases”. For the same compound, the “numbers of lung nodules after CD8+ cell depletion” value in assay [2] (anti-CD8 mAb depletion, 1V270 20 μg/injection i.p.) was “increased significantly”.

The record behind these values is US20200087625A1, “METHODS FOR ISOLATING, EXPANDING AND ADMINISTERING CANCER SPECIFIC CD8+ T CELLS” (priority 2017, published 2020).
